Data published in patent publication US9445596B2, “Small molecule compounds for the control of nematodes” (California Institute of Technology, priority 2011, dated 2016).
“Also recorded” adds a separate entry of the source.

What was measured:
[1] = tested on: C. elegans hermaphrodites and males; test: Spot attraction assay; assay type: in vivo
Method: The spot attraction assays were conducted according to a previously reported method (Pungaliya et al., PNAS 106:7708-13 (2009); Srinivasan et al., Nature 454:1115-18 (2008), which are hereby incorporated by reference in their entirety). For both C. elegans hermaphrodites and males, 50-60 worms were harvested daily at the fourth larval stage (L4) and stored segregatedly by sex at 20° C. overnight, to be used as young adults the following day. For the competition experiments, two conditions were used: 120 nM ascr#3 and 10 nM icas#3 (Condition 1), or 12 μM ascr#3 and 1 μM icas#3 (Condition 2) in water containing 10% ethanol. Aliquots were stored at −20° C. in 20 μL tubes. 10% ethanol in water was used as control.
Attraction assays with hbas#3 were conducted as previously reported (Srinivasan et al., Nature 454:1115-18 (2008); Pungaliya et al., Proc. Natl. Acad. Sci. U.S.A. 106:7708-13 (2009), which are hereby incorporated by reference in their entirety). For the attraction assays, 50-60 hermaphrodite worms were harvested daily at the early fourth larval stage (L4) and stored at 20° C. overnight to be used as young adults the following day. Hbas#3 was dissolved in water containing 10% ethanol. Aliquots were stored at −20° C. in 20 μL tubes. 10% ethanol in water was used as control.

[2] = tested on: C. elegans hermaphrodites; test: Quadrant chemotaxis assay; assay type: in vivo; settings: see FIGS. 48A-B (spot attraction and quadrant chemotaxis assays); wild-type hermaphrodites
Method: Chemotaxis to both non-indole and indole ascarosides was assessed on 10 cm four-quadrant petri plates (Wicks et al., Dev. Biol. 221:295-307 (2000), which is hereby incorporated by reference in its entirety). Each quadrant was separated from adjacent ones by plastic spacers (FIG. 1B). Pairs of opposite quadrants were filled with nematode growth medium (NGM) agar containing either indole ascarosides or non-indole ascarosides at different concentrations. Animals were washed gently in a S-basal buffer, placed in the center of a four-quadrant plate with ascarosides in alternating quadrants, and scored after 15 minutes and 30 minutes. A chemotaxis index was calculated as: (the number of animals on ascaroside quadrants minus the number of animals on buffer quadrants)/(total number of animals).
Chemotaxis to hbas#3 was assessed on 10 cm four-quadrant petri plates (Wicks et al., Dev. Biol. 221:295-307 (2000), which is hereby incorporated by reference in its entirety). Each quadrant was separated from adjacent ones by plastic spacers. Pairs of opposite quadrants were filled with nematode growth medium (NGM) agar containing different concentrations of hbas#3. Animals were washed gently in an S-basal buffer and placed in the center of a four-quadrant plate with ascarosides in alternating quadrants, and scored after 15 minutes and 30 minutes. A chemotaxis index was calculated as: (the number of animals on ascaroside quadrants minus the number of animals on buffer quadrants)/(total number of animals).

[3] = tested on: several of the tested nematode species; test: Retention assay, several nematode species; assay type: in vivo; settings: 1 nM, 1 μM and 1 mM tested
Method: OP50 E. coli was grown on a standard 5 cm agar plate (made with standard Nematode Growth Medium). The bacterial lawn was 16 mm in diameter and was grown overnight at 20° C. before being used in trials. Two 4 mm spots (0.6 μL) were placed on opposite sides of the bacterial lawn (using a transparent template to guide spot placement), and several minutes elapsed for the liquid to settle in before placing nematodes down on the assay. Recording began immediately upon worm placement. 0.6 μL of the control was placed on one side of the lawn, and 0.6 μL of the experimental cue was placed on the other side of the lawn, changing the location of the cue throughout trials between left/right and top/bottom to avoid bias.
Nematodes were isolated by gender at the L4 stage the day before being used in trials as developed adults. Worms were evenly divided and placed at two points equidistant from the foci of the scoring region. Trials were recorded for 20 minutes, and frames were collected for analysis at 1 frame per second. Results were averaged from at least three different trials. For every nematode species in this study, a different total number of worms (using water in both scoring regions) was tested to determine the minimum number of worms necessary for consistent unbiased results over a 20 minute trial. The total number of worms used in the multiple species assays depended on that species' optimal parameters. 10 worms were used for P. redivivus males and females, 20 worms were used for C. elegans males and O. dolichuridae males, and 14 worms were used for S. glaseri males. The Automated Software was used to compare worm occupancy in each scoring region over time, and the Chemotaxis Index (Bargmann et al., Cell 74:515-27 (1993), which is hereby incorporated by reference in its entirety) was adapted to score preference or avoidance to each ascaroside.
A video camera attached to the microscope produced a digital video stream, which was then analyzed. The ratio of the time the average worm spent in each region of interest was calculated for every trial. For ease of implementation, all worms in a single experiment were assumed to be roughly the same size. Thus worm pixels were counted instead of whole worms, allowing fractions of a worm in the region of interest to be taken into account. It also eliminated the need for a shape-based worm identification algorithm, and allowed each frame to be analyzed independently. A band-pass filter was applied to each frame to eliminate the effect of uneven lighting and also accentuate the worms against the background. The worm was then identified after thresholding the filtered image. Throughout each experiment, the locations and sizes of the regions of interest were known. Through the filtering described above, it is known which pixels are occupied by worms and which ones are not. Thus, the ratio of worm-pixels to all pixels inside the region of interest can be calculated to produce the worm-occupancy ratio. This calculation was done for every frame, giving a plot output of worm-occupancy ratio vs. time for each region.

[4] = tested on: P. pacificus strain RSB020; test: Mouth-form dimorphism assay; assay type: in vivo, Pristionchus pacificus
Method: Mouth-form dimorphism assays were performed using P. pacificus strain RSB020. The synthetic compounds dissolved in ethanol (0.5 mM) were diluted with water to make 100 μl solution and subsequently added to 3 mL NGM-agar (1 μM final concentration). The assay plates were seeded with 50 μl OP50 culture in LB medium and incubated overnight at 20° C. to allow bacterial growth. Each replicate included the progeny of two mothers, which were picked as adult hermaphrodites of a consistent age (carrying 4-6 eggs) and which were all from the same P. pacificus culture plate. Following the placement of mothers on assay plates, plates were kept at 20° C. for six days, such that the entire broods were adults at the time of screening. A random sample of 50 hermaphrodite progeny was screened per plate. All animals were screened by differential interference contrast (DIC) microscopy on a Zeiss Axiskop. The following discrete characters were used to discriminate eurystomatous from stenostomatous individuals, respectively: (1) claw-shaped vs. flint-shaped (i.e. dorsoventrally symmetrical) dorsal tooth; (2) presence vs. absence of a subventral tooth; (3) strongly vs. weakly sclerotized stomatal walls. No intermediate mouth-forms were observed. Experiments were conducted in triplicate for each treatment. In assays of responses to compounds of several concentrations (1, 0.3, 0.1, 0.03, 0.01 μM final concentrations), experiments were performed as described above, with the following modifications. To allow greater resolution of responses to lower concentrations, 60 randomly screened individuals in each of five replicates per concentration per compound were assayed. All concentration-curve experiments were performed in parallel using mothers picked randomly from the same two source populations. To prepare large numbers of individual mothers for these experiments, source populations were established from virgin hermaphrodites to constrain the presence of males and were conditioned to well-fed and ambient conditions for at least one generation before mothers were picked for the assays.

[5] = tested on: P. pacificus; test: Dauer formation assay; assay type: in vivo, Pristionchus pacificus; settings: synthetic samples; first assayed at 1 μM
Method: Dauer formation assays were performed as described in Ogawa et al., Curr. Biol. 19:67-71 (2009), which is hereby incorporated by reference in its entirety, using heat- or kanamycin-killed E. coli OP50. Synthetic compounds were dissolved in ethanol (0.5 mM, stock solution) and combined with water to make a […] and subsequently added to 3 mL NGM-agar without peptone ([…], 0.3, 0.1 μM final concentrations).

[6] = tested on: C. elegans males; test: Attraction assay (long-range, point source); assay type: in vivo; settings: point source on 10 cm plate
Method: 10 cm standard chemotaxis plates were prepared (Bargmann et al., Cell 74:515-27 (1993), which is hereby incorporated by reference in its entirety) and stored at 4° C. until the day before use. Standard 1 cm-diameter copper pipes were sectioned into 1 cm-tall segments to use for the holding chambers. The females/hermaphrodites were isolated overnight, washed 3 times in M9 buffer, and then allowed to wander on a plate pre-conditioned with 50 uL of 1000× streptomycin for 2 hours to kill any bacteria that might produce a false positive attractant. The nematodes were then washed 3 times, and the supernatant from the last wash was placed in a copper chamber, as the control, 1 cm from the border of the 10 cm plate. The nematodes were suspended in M9 within the copper chamber, 1 cm from the border opposite the control chamber. After 6 hours, they were subsequently removed and replaced with 3 μL of 1M sodium azide. 100 C. elegans adult males were isolated overnight, washed several times in ddH2O, and placed at the center of the agar plate. After several hours, males paralyzed within 2 cm of each region were scored. The Chemotaxis Index (Bargmann et al., Cell 74:515-27 (1993), which is hereby incorporated by reference in its entirety) was then used to score male chemotaxis to either point source.

[7] = tested on: C. elegans; settings: shown previously; cited from earlier work
[8] = tested on: C. elegans hermaphrodites and males; settings: cited from earlier work
[9] = synthetic samples, first assayed at 1 μM
[10] = literature (Pungaliya 2009; Srinivasan 2008)

C[C@H](CCCC/C=C/C(=O)O)O[C@@H]1O[C@@H](C)[C@H](OC(=O)c2ccc(O)cc2)C[C@H]1O [hbas#3, (8R)-(3′R-Hydroxy-5′R-(4-hydroxybenzoyloxy)-6′S-methyl-(2H)-tetrahydropyran-2′-yloxy)non-(2E)-enoic acid]
attraction in the spot attraction assay ([1]; wild-type (N2) hermaphrodites, dose dependent manner): attracted | lowest concentration with strong attraction of C. elegans (as low as) [2]: 10 femtomolar

C[C@H](CCCCC(=O)O)O[C@@H]1O[C@@H](C)[C@H](OC(=O)c2c[nH]c3ccccc23)C[C@H]1O [icas#1]
attraction in the spot attraction assay ([1]; 1 pmol, N2 hermaphrodites and him-5 males): attractive to both C. elegans sexes | attraction in the spot attraction assay ([1]; high concentrations, males and hermaphrodites): attracted both males and hermaphrodites

C[C@H](CC/C=C/C(=O)O)O[C@@H]1O[C@@H](C)[C@H](O)C[C@H]1O [ascr#7]
preference for areas conditioned by the ascaroside [3]: preferred

C[C@H](CCCCC(=O)O[C@@H]1C[C@@H](O)[C@H](O[C@H](C)CCCCC(=O)O)O[C@H]1C)O[C@@H]1O[C@@H](C)[C@H](O)C[C@H]1O [dasc#1, (R)-6-(((2R,3R,5R,6S)-5-(((R)-6-(((2R,3R,5R,6S)-3,5-dihydroxy-6-methyltetrahydro-2H-pyran-2-yl)oxy)heptanoyl)oxy)-3-hydroxy-6-methyltetrahydro-2H-pyran-2-yl)oxy)heptanoic acid]
induction of the eurystomatous mouth form [4, 9]: regulates adult morphology; also recorded: strongly induce the eurystomatous mouth form | dauer induction [5]: inactive in the dauer formation assay

C[C@H](CCC(=O)O[C@H](C)[C@H](NC(=O)Nc1ncnc2c1ncn2[C@@H]1OC[C@@H](O)[C@H](O)[C@H]1O)C(=O)O)O[C@@H]1O[C@@H](C)[C@H](O)C[C@@H]1O [npar#1, (2S,3R)-3-(((R)-4-(((2R,3S,5R,6S)-3,5-dihydroxy-6-methyltetrahydro-2H-pyran-2-yl)oxy)pentanoyl)oxy)-2-(3-(9-((2R,3R,4S,5R)-3,4,5-trihydroxytetrahydro-2H-pyran-2-yl)-9H-purin-6-yl)ureido)butanoic acid]
induction of the eurystomatous mouth form ([4]; high concentrations): weaker induction of the eurystomatous mouth form | dauer induction [5]: induces dauer arrest; also recorded: strongly induced dauer formation

C[C@H](CCC(=O)O[C@@H](CNC(=O)CCC(=O)O)c1ccccc1)O[C@@H]1O[C@@H](C)[C@H](O)C[C@H]1O [pasc#9, 4-(((R)-2-(((R)-4-(((2R,3R,5R,6S)-3,5-dihydroxy-6-methyltetrahydro-2H-pyran-2-yl)oxy)pentanoyl)oxy)-2-phenylethyl)amino)-4-oxobutanoic acid]
induction of the eurystomatous mouth form ([4]; high concentrations): weaker induction of the eurystomatous mouth form

C[C@H](CCC(=O)O)O[C@@H]1O[C@@H](C)[C@H](OC(=O)[C@H](C)CNC(N)=O)C[C@H]1OC(=O)CCCCO[C@@H]1O[C@@H](C)[C@H](O)C[C@H]1O [ubas#1, (R)-4-(((2R,3R,5R,6S)-3-((5-(((2R,3R,5R,6S)-3,5-dihydroxy-6-methyltetrahydro-2H-pyran-2-yl)oxy)pentanoyl)oxy)-6-methyl-5-(((R)-2-methyl-3-ureidopropanoyl)oxy)tetrahydro-2H-pyran-2-yl)oxy)pentanoic acid]
induction of the eurystomatous mouth form [4, 9]: inactive

CC1O[C@@H](O[C@H](C)CCCC/C=C/C(=O)O)[C@@H](O)C[C@H]1O (stereo partly shown) [ascr#3]
lowest amount eliciting male attraction (as low as) [6]: 5 femtomol | male attraction from a distance / chemotaxis towards a point source [6]: chemotax towards | promotion of dauer entry [7]: individually promote dauer entry | most active amount for attraction in C. elegans ([8]; from 1 μM concentration, previous study (Srinivasan 2008)): ~1 pmol | response of social and solitary hermaphrodites ([8]; high dauer-inducing concentrations, previous studies): strongly deter | attraction of males [8, 10]: strongly attracts males | response of hermaphrodites [8, 10]: repels hermaphrodites | preference for areas conditioned by the ascaroside [3]: preferred
